Measured values: patent US20020137929A1, “1 - (3-heterocyclylphenyl) isothiourea, -isourea, -guanidine and -amidine herbicidal agents” (Intellectual Property Department, BASF Aktiengesellschaft, priority 1998, published 2002)

Assays:
AMBEL (Ragweed, Common) = assay: Preemergence herbicidal evaluation; type: in vivo, Ambrosia artemisifolia; settings: rated 4-5 weeks after treatment
Method in brief: (§1)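 Greenhouse preemergence test: seed-soil mix sown on ~1 inch soil; aqueous acetone spray at equivalent of ~0.0156–0.500 kg/ha; greenhouse-held and watered; scored 0–9 visually at 4–5 weeks.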

CYPIR (Rice Flatsedge) = assay: Preemergence weed control under flooded paddy conditions; type: in vivo, Cyperus iria; settings: rated 3-4 weeks after treatment
Method in brief: (§2)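 Silt loam, seeds in top 0.5 cm; flood held 1.5-3 cm; test cpd as acetone/water 50/50 into flood water, ~0.0313-0.500 kg/ha a.i.; greenhouse 3-4 wk; visual 0-9 score vs control.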

[1] = system: TRZAWR (Wheat, Winter, cv Riband); assay: Preemergence herbicidal evaluation; type: in vivo, Triticum aestivum; settings: rated 4-5 weeks after treatment
Method in brief: as §1

[2] = system: IPOHE (Morningglory, Ivyleaf); assay: Preemergence herbicidal evaluation; type: in vivo, Ipomoea hederacea; settings: rated 4-5 weeks after treatment
Method in brief: as §1

ZEAMX (Corn, Field) [3] = assay: Preemergence herbicidal evaluation; type: in vivo, Zea mays; settings: rated 4-5 weeks after treatment
Method in brief: as §1

[4] = system: CHEAL (Lambsquarters, Common); assay: Preemergence herbicidal evaluation; type: in vivo, Chenopodium album; settings: rated 4-5 weeks after treatment
Method in brief: as §1

[5] = system: ECHORC (Watergrass (Calif.)); assay: Postemergence weed control under flooded paddy conditions; type: in vivo, Echinochloa oryzoides; settings: postemergence weeds, 3-4 weeks after treatment
Method in brief: (§3)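 Weeds 3 to 5 cm tall and rice seedlings at the 1.5 to 2.5 leaf stage were flooded, with water held 1.5 to 3 cm above the soil. Compounds in 50/50 v/v aqueous/acetone went into the flood water at about 0.0313 to 0.500 kg/ha. Visual 0-9 ratings versus control were made 3 to 4 weeks later.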

GALAP (Galium) = assay: Postemergence herbicidal evaluation; type: in vivo, Galium aparine
Method in brief: (§4)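 First, seedlings were raised for around two weeks. Next, test material in 50/50 acetone/water containing 0.5% TWEEN 20 was sprayed through a nozzle at 40 psi, equivalent to about 0.0156–0.500 kg/ha. Finally, after 4–5 weeks in the greenhouse, plants were rated 0–9.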

CASOB (Sicklepod) = assay: Postemergence herbicidal evaluation; type: in vivo, Cassia obtusifolia
Method in brief: as §4

CYPSE (Flatsedge) [6] = assay: Postemergence weed control under flooded paddy conditions; type: in vivo, Cyperus serotinus; settings: postemergence weeds, 3-4 weeks after treatment
Method in brief: as §3

ZEAMX (Corn, Field) [7] = assay: Postemergence herbicidal evaluation; type: in vivo, Zea mays
Method in brief: as §4

[8] = system: ECHORC (Watergrass (Calif.)); assay: Preemergence weed control under flooded paddy conditions; type: in vivo, Echinochloa oryzoides; settings: rated 3-4 weeks after treatment
Method in brief: as §2

CYPSE (Flatsedge) [9] = assay: as above; type: in vivo, Cyperus serotinus; settings: rated 3-4 weeks after treatment
Method in brief: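 Using flooded silt loam (water 1.5 to 3 cm deep), seeds sown in the top 0.5 cm were exposed preemergence to compound pipetted into the flood at about 0.0313 to 0.500 kg/ha. Effects were scored 0-9 by eye three to four weeks later.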

ORYSAT (Rice, Tebonnet) = assay: Preemergence herbicidal evaluation; type: in vivo, Oryza sativa, (L.) Tebonnet; settings: rated 4-5 weeks after treatment
Method in brief: as §1

Structure (SMILES): Cn1c(C(F)(F)F)cc(=O)n(-c2cc(N=C3SCC(=O)N3CCC(=O)O)c(Cl)cc2F)c1=O [Compound 30, 2-{{2-Chloro-5-[3,6-dihydro-3-methyl-2,6-dioxo-4-(trifluoromethyl)-1(2H)-pyrimidinyl]-4-fluorophenyl}imino}-4-oxo-3-thiazolidinepropionic acid]
- Preemergence herbicidal rating AMBEL (AMBEL (Ragweed, Common); rate 0.0313 kg/ha): 0.0
- Preemergence herbicidal rating AMBEL (AMBEL (Ragweed, Common); rate 0.0625 kg/ha): 1.0
- Preemergence herbicidal rating AMBEL (AMBEL (Ragweed, Common); rate 0.1250 kg/ha): 5.0
- Preemergence herbicidal rating AMBEL (AMBEL (Ragweed, Common); rate 0.2500 kg/ha): 6.0
- Herbicidal rating CYPIR (CYPIR (Rice Flatsedge); 0.1250 kg/ha): 2.0
- Herbicidal rating CYPIR (CYPIR (Rice Flatsedge); 0.2500 kg/ha): 4.5
- Preemergence herbicidal rating TRZAWR ([1]; rate 0.0313 kg/ha): 0.0
- Preemergence herbicidal rating TRZAWR ([1]; rate 0.0625 kg/ha): 1.0
- Preemergence herbicidal rating TRZAWR ([1]; rate 0.1250 kg/ha): 2.0
- Preemergence herbicidal rating TRZAWR ([1]; rate 0.2500 kg/ha): 6.0
- Preemergence herbicidal rating IPOHE ([2]; rate 0.0313 kg/ha): 0.0
- Preemergence herbicidal rating IPOHE ([2]; rate 0.0625 kg/ha): 0.0
- Preemergence herbicidal rating IPOHE ([2]; rate 0.1250 kg/ha): 1.0
- Preemergence herbicidal rating IPOHE ([2]; rate 0.2500 kg/ha): 2.0
- Preemergence herbicidal rating ZEAMX (ZEAMX (Corn, Field) [3]; rate 0.0313 kg/ha): 1.0
- Preemergence herbicidal rating ZEAMX (ZEAMX (Corn, Field) [3]; rate 0.0625 kg/ha): 3.0
- Preemergence herbicidal rating ZEAMX (ZEAMX (Corn, Field) [3]; rate 0.1250 kg/ha): 3.0
- Preemergence herbicidal rating ZEAMX (ZEAMX (Corn, Field) [3]; rate 0.2500 kg/ha): 6.0
- Preemergence herbicidal rating CHEAL ([4]; rate 0.0313 kg/ha): 0.0
- Preemergence herbicidal rating CHEAL ([4]; rate 0.0625 kg/ha): 0.0
- Preemergence herbicidal rating CHEAL ([4]; rate 0.1250 kg/ha): 9.0
- Preemergence herbicidal rating CHEAL ([4]; rate 0.2500 kg/ha): 9.0
- Herbicidal rating ECHORC ([5]; rate 0.1250 kg/ha): 0.0
- Herbicidal rating ECHORC ([5]; rate 0.2500 kg/ha): 0.0
- Postemergence herbicidal rating GALAP (GALAP (Galium); Rate 0.0158 kg/ha): 0.0
- Postemergence herbicidal rating GALAP (GALAP (Galium); Rate 0.0315 kg/ha): 0.0
- Postemergence herbicidal rating GALAP (GALAP (Galium); Rate 0.0630 kg/ha): 0.0
- Postemergence herbicidal rating CASOB (CASOB (Sicklepod); Rate 0.0158 kg/ha): 0.0
- Postemergence herbicidal rating CASOB (CASOB (Sicklepod); Rate 0.0315 kg/ha): 0.0
- Postemergence herbicidal rating CASOB (CASOB (Sicklepod); Rate 0.0630 kg/ha): 0.0
- Herbicidal rating CYPSE (CYPSE (Flatsedge) [6]; rate 0.1250 kg/ha): 0.0
- Herbicidal rating CYPSE (CYPSE (Flatsedge) [6]; rate 0.2500 kg/ha): 0.0
- Postemergence herbicidal rating ZEAMX (ZEAMX (Corn, Field) [7]; Rate 0.0158 kg/ha): 3.0
- Postemergence herbicidal rating ZEAMX (ZEAMX (Corn, Field) [7]; Rate 0.0315 kg/ha): 4.5
- Postemergence herbicidal rating ZEAMX (ZEAMX (Corn, Field) [7]; Rate 0.0630 kg/ha): 6.0
- Herbicidal rating ECHORC ([8]; 0.1250 kg/ha): 0.0
- Herbicidal rating ECHORC ([8]; 0.2500 kg/ha): 0.0
- Herbicidal rating CYPSE (CYPSE (Flatsedge) [9]; 0.1250 kg/ha): 0.0
- Herbicidal rating CYPSE (CYPSE (Flatsedge) [9]; 0.2500 kg/ha): 0.0
- Preemergence herbicidal rating ORYSAT (ORYSAT (Rice, Tebonnet); rate 0.0313 kg/ha): 1.0
- Preemergence herbicidal rating ORYSAT (ORYSAT (Rice, Tebonnet); rate 0.0625 kg/ha): 1.0
- Preemergence herbicidal rating ORYSAT (ORYSAT (Rice, Tebonnet); rate 0.1250 kg/ha): 1.0
- Preemergence herbicidal rating ORYSAT (ORYSAT (Rice, Tebonnet); rate 0.2500 kg/ha): 4.0

Structure (SMILES): Cn1c(C(F)(F)F)cc(=O)n(-c2cc(N=C3SCC(=O)N3CCC(=O)O)c(Cl)cc2F)c1=O [Compound 31, 2-{{2-Chloro-5-[3,6-dihydro-3-methyl-2,6-dioxo-4-(trifluoromethyl)-1(2H)-pyrimidinyl]-4-fluoro-phenyl}imino}-4-oxo-3-thiazolidinepropionic acid]
- Preemergence herbicidal rating AMBEL (AMBEL (Ragweed, Common); rate 0.0625 kg/ha): 0.0
- Preemergence herbicidal rating AMBEL (AMBEL (Ragweed, Common); rate 0.1250 kg/ha): 4.0
- Preemergence herbicidal rating AMBEL (AMBEL (Ragweed, Common); rate 0.2500 kg/ha): 9.0
- Herbicidal rating CYPIR (CYPIR (Rice Flatsedge); 0.0625 kg/ha): 0.0
- Herbicidal rating CYPIR (CYPIR (Rice Flatsedge); 0.1250 kg/ha): 0.0
- Herbicidal rating CYPIR (CYPIR (Rice Flatsedge); 0.2500 kg/ha): 2.5
- Preemergence herbicidal rating TRZAWR ([1]; rate 0.0625 kg/ha): 0.0
- Preemergence herbicidal rating TRZAWR ([1]; rate 0.1250 kg/ha): 3.0
- Preemergence herbicidal rating TRZAWR ([1]; rate 0.2500 kg/ha): 7.0
- Preemergence herbicidal rating IPOHE ([2]; rate 0.0625 kg/ha): 0.0
- Preemergence herbicidal rating IPOHE ([2]; rate 0.1250 kg/ha): 5.0
- Preemergence herbicidal rating IPOHE ([2]; rate 0.2500 kg/ha): 9.0
- Preemergence herbicidal rating ZEAMX (ZEAMX (Corn, Field) [3]; rate 0.0625 kg/ha): 3.0
- Preemergence herbicidal rating ZEAMX (ZEAMX (Corn, Field) [3]; rate 0.1250 kg/ha): 7.0
- Preemergence herbicidal rating ZEAMX (ZEAMX (Corn, Field) [3]; rate 0.2500 kg/ha): 9.0
- Preemergence herbicidal rating CHEAL ([4]; rate 0.0625 kg/ha): 0.0
- Preemergence herbicidal rating CHEAL ([4]; rate 0.1250 kg/ha): 9.0
- Preemergence herbicidal rating CHEAL ([4]; rate 0.2500 kg/ha): 9.0
- Herbicidal rating ECHORC ([5]; rate 0.0625 kg/ha): 1.0
- Herbicidal rating ECHORC ([5]; rate 0.1250 kg/ha): 2.0
- Herbicidal rating ECHORC ([5]; rate 0.2500 kg/ha): 5.0
- Postemergence herbicidal rating GALAP (GALAP (Galium); Rate 0.0158 kg/ha): 0.0
- Postemergence herbicidal rating GALAP (GALAP (Galium); Rate 0.0315 kg/ha): 1.0
- Postemergence herbicidal rating GALAP (GALAP (Galium); Rate 0.0630 kg/ha): 3.0
- Postemergence herbicidal rating CASOB (CASOB (Sicklepod); Rate 0.0158 kg/ha): 0.0
- Postemergence herbicidal rating CASOB (CASOB (Sicklepod); Rate 0.0315 kg/ha): 0.0
- Postemergence herbicidal rating CASOB (CASOB (Sicklepod); Rate 0.0630 kg/ha): 0.0
- Herbicidal rating CYPSE (CYPSE (Flatsedge) [6]; rate 0.0625 kg/ha): 0.0
- Herbicidal rating CYPSE (CYPSE (Flatsedge) [6]; rate 0.1250 kg/ha): 0.0
- Herbicidal rating CYPSE (CYPSE (Flatsedge) [6]; rate 0.2500 kg/ha): 0.0
- Postemergence herbicidal rating ZEAMX (ZEAMX (Corn, Field) [7]; Rate 0.0158 kg/ha): 7.0
- Postemergence herbicidal rating ZEAMX (ZEAMX (Corn, Field) [7]; Rate 0.0315 kg/ha): 7.5
- Postemergence herbicidal rating ZEAMX (ZEAMX (Corn, Field) [7]; Rate 0.0630 kg/ha): 8.0
- Herbicidal rating ECHORC ([8]; 0.0625 kg/ha): 1.0
- Herbicidal rating ECHORC ([8]; 0.1250 kg/ha): 2.0
- Herbicidal rating ECHORC ([8]; 0.2500 kg/ha): 5.0
- Herbicidal rating CYPSE (CYPSE (Flatsedge) [9]; 0.0625 kg/ha): 0.0
- Herbicidal rating CYPSE (CYPSE (Flatsedge) [9]; 0.1250 kg/ha): 0.0
- Herbicidal rating CYPSE (CYPSE (Flatsedge) [9]; 0.2500 kg/ha): 0.0
- Preemergence herbicidal rating ORYSAT (ORYSAT (Rice, Tebonnet); rate 0.0625 kg/ha): 0.0
- Preemergence herbicidal rating ORYSAT (ORYSAT (Rice, Tebonnet); rate 0.1250 kg/ha): 2.0
- Preemergence herbicidal rating ORYSAT (ORYSAT (Rice, Tebonnet); rate 0.2500 kg/ha): 6.0
